Measured values taken from ChEMBL document CHEMBL1759974, “Discovery of triazine-benzimidazoles as selective inhibitors of mTOR” (Bioorg Med Chem Lett, 2011).
In brackets after ≈: the same amount, converted by molar mass. Activity calls are given as the source filed them. The calls are words filed in the database; no cut-off is given here.

Experiments:
[1] = Intrinsic clearance in rat liver microsomes; assay type: ADME, Microsome
[2] = Half life in Sprague-Dawley rat at 1 mg/kg, iv; assay type: ADME, organism-based; set-up: dose 1 mg/kg, route intravenous; conditions: in vivo
[3] = Solubility of compound in 0.01 N HCL; assay type: physicochemical; conditions: buffer
[4] = Oral bioavailability in Sprague-Dawley rat at 2 mg/kg; assay type: ADME, organism-based; conditions: in vivo
Liver = test: Intrinsic clearance in rat liver hepatocytes; assay type: ADME, cell-based, Hepatocyte
[5] = Clearance in Sprague-Dawley rat at 1 mg/kg, iv and 2 mg/kg, po; assay type: ADME, organism-based; conditions: in vivo
[6] = Plasma protein binding in Sprague-Dawley rat at 1 mg/kg, iv and 2 mg/kg, po; assay type: ADME, organism-based; conditions: read-out: PPB (converted)
[7] = molecular target: T1, Phosphatidylinositol 4,5-bisphosphate 3-kinase catalytic subunit delta isoform (Homo sapiens, UniProt O00329)
T1 sequence (O00329 whole entry): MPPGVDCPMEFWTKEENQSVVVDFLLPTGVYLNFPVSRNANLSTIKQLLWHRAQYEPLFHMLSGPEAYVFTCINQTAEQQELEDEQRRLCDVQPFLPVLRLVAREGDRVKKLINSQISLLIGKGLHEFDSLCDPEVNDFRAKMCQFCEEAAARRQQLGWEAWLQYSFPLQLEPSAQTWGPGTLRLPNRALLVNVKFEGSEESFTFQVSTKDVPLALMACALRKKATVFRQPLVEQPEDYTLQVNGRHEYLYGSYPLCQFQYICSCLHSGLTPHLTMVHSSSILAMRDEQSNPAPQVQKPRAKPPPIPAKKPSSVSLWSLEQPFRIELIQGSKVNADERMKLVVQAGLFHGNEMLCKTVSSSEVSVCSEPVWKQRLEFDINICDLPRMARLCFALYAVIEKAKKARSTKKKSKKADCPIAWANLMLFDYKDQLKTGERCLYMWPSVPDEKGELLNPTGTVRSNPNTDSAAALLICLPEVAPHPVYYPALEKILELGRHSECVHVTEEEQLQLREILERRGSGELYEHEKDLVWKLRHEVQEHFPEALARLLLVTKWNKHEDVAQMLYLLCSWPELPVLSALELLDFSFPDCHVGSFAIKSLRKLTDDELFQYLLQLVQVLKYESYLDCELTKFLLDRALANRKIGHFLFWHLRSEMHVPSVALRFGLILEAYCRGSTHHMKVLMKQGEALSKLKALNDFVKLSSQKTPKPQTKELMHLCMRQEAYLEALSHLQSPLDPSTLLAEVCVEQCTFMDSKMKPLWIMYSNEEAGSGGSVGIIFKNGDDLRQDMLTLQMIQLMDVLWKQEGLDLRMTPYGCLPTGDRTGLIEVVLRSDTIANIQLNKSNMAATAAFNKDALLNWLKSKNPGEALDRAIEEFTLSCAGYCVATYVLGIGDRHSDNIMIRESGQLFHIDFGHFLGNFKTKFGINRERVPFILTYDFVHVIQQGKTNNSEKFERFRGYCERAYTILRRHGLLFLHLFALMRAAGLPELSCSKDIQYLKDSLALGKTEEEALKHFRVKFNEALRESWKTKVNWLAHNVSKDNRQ

Rattus norvegicus [8] = test: In vivo clearance in bile-duct cannulated rat assessed as multiple glucuronidation metabolites in bile by LC/MS analysis; assay type: ADME, organism-based
[9] = molecular target: T2, Serine/threonine-protein kinase mTOR (Homo sapiens, UniProt P42345)
[10] = Intrinsic clearance in human liver microsomes; assay type: ADME, Microsome
[11] = molecular target: Phosphatidylinositol 4,5-bisphosphate 3-kinase catalytic subunit alpha isoform (Homo sapiens, UniProt P42336)
Rattus norvegicus [12] = test: AUC in Sprague-Dawley rat at 1 mg/kg, iv; assay type: ADME, organism-based, Plasma; set-up: dose 1 mg/kg, route intravenous; conditions: in vivo
[13] = molecular target: Phosphatidylinositol 4,5-bisphosphate 3-kinase catalytic subunit beta isoform (Homo sapiens, UniProt P42338)
[14] = molecular target: T2, Serine/threonine-protein kinase mTOR; remark: listed apart in the source
[15] = molecular target: T2, Serine/threonine-protein kinase mTOR; remark: listed apart in the source
Description: Inhibition of mTOR in human U-87 cells assessed as inhibition of phosphorylation of AKT at S473

[16] = Volume of distribution at steady state in Sprague-Dawley rat at 1 mg/kg, iv and 2 mg/kg, po; assay type: ADME, organism-based; conditions: in vivo, read-out: Vdss
[17] = Half life in Sprague-Dawley rat at 0.5 mg/kg, iv; assay type: ADME, organism-based; set-up: dose 0.5 mg/kg, route intravenous; conditions: in vivo
[18] = Clearance in Sprague-Dawley rat at 0.5 mg/kg, iv; assay type: ADME, organism-based; set-up: dose 0.5 mg/kg, route intravenous; conditions: in vivo
Rattus norvegicus [19] = test: AUC in Sprague-Dawley rat at 0.5 mg/kg, iv; assay type: ADME, organism-based, Plasma; set-up: dose 0.5 mg/kg, route intravenous; conditions: in vivo
[20] = Volume of distribution at steady state in Sprague-Dawley rat at 0.5 mg/kg, iv; assay type: ADME, organism-based; set-up: dose 0.5 mg/kg, route intravenous; conditions: in vivo, read-out: Vdss
[21] = molecular target: Phosphatidylinositol 4,5-bisphosphate 3-kinase catalytic subunit gamma isoform (Homo sapiens, UniProt P48736)
HCC1954 = test: Antiproliferative activity against human HCC1954 harboring PI3K/p53 gene mutation/amplification at 1 uM after 72 hrs by Ambit assay in presence of 10% serum; assay type: functional, cell-based; conditions: HCC1954, 72 h
[22] = Antiproliferative activity against human U87MG harboring PTEN gene mutation/amplification at 1 uM after 72 hrs by Ambit assay in presence of 10% serum; assay type: functional, U-87MG ATCC; conditions: U-87 MG
MCF7 = test: Antiproliferative activity against human MCF7 harboring PI3K gene mutation/amplification at 1 uM after 72 hrs by Ambit assay in presence of 10% serum; assay type: functional, cell-based; conditions: MCF7, 72 h
MDA-MB-468 = test: Antiproliferative activity against human MDA-MB-468 harboring PTEN/EGFR/p53 gene mutation/amplification at 1 uM after 72 hrs by Ambit assay in presence of 10% serum; assay type: functional, cell-based; conditions: MDA-MB-468, 72 h
[23] = molecular target: TGF-beta receptor type-2 (Homo sapiens) (UniProt P37173); test: Inhibition of TGFBR2 assessed as inhibition of TGFbeta induced SMAD phosphorylation at 1 uM relative to control
DU-4475 = test: Antiproliferative activity against human DU4475 harboring BRAF/APC/RB gene mutation/amplification at 1 uM after 72 hrs by Ambit assay in presence of 10% serum; assay type: functional, cell-based; conditions: DU-4475, 72 h
BT-474 = test: Antiproliferative activity against human BT474 cells harboring HER2/PI3K/p53 mutant gene at 1 uM after 72 hrs by Ambit assay in presence of 10% serum; assay type: functional, cell-based; conditions: BT-474, 72 h
NCI-H460 = test: Antiproliferative activity against human NCI-H460 harboring PI3K/KRAS/LKB1 gene mutation/amplification at 1 uM after 72 hrs by Ambit assay in presence of 10% serum; assay type: functional, cell-based; conditions: NCI-H460, 72 h
CAL-51 = test: Antiproliferative activity against human CAL51 harboring PI3K/PTEN gene mutation/amplification at 1 uM after 72 hrs by Ambit assay in presence of 10% serum; assay type: functional, cell-based; conditions: CAL-51, 72 h
NCI-H82 = test: Antiproliferative activity against human NCI-H82 harboring CMYC/RB gene mutation/amplification at 1 uM after 72 hrs by Ambit assay in presence of 10% serum; assay type: functional, cell-based; conditions: NCI-H82, 72 h
NCI-H1975 = test: Antiproliferative activity against human NCI-H1975 harboring PI3K/EGFR/p53 gene mutation/amplification at 1 uM after 72 hrs by Ambit assay in presence of 10% serum; assay type: functional, cell-based; conditions: NCI-H1975, 72 h
NCI-H2009 = test: Antiproliferative activity against human NCI-H2009 harboring KRAS/RB/p53 gene mutation/amplification at 1 uM after 72 hrs by Ambit assay in presence of 10% serum; assay type: functional, cell-based; conditions: NCI-H2009, 72 h
UACC-893 = test: Antiproliferative activity against human UACC-893 cells harboring HER2/PI3K/p53 mutant gene at 1 uM after 72 hrs by Ambit assay in presence of 10% serum; assay type: functional, cell-based; conditions: UACC-893, 72 h
Calu-6 = test: Antiproliferative activity against human Calu6 harboring KRAS gene mutation/amplification at 1 uM after 72 hrs by Ambit assay in presence of 10% serum; assay type: functional, cell-based; conditions: Calu-6, 72 h
SK-MEL-28 = test: Antiproliferative activity against human SK-MEL-28 harboring BRAF gene mutation/amplification at 1 uM after 72 hrs by Ambit assay in presence of 10% serum; assay type: functional, cell-based; conditions: SK-MEL-28, 72 h
MDA-MB-231 = test: Antiproliferative activity against human MDA-MB-231 harboring KRAS/BRAF/p53 gene mutation/amplification at 1 uM after 72 hrs by Ambit assay in presence of 10% serum; assay type: functional, cell-based; conditions: MDA-MB-231, 72 h
A-375 = test: Antiproliferative activity against human A375 cells harboring BRAF gene mutation/amplification at 1 uM after 72 hrs by Ambit assay in presence of 10% serum; assay type: functional, cell-based; conditions: A-375, 72 h
A549 = test: Antiproliferative activity against human A549 cells harboring KRAS/LKB1 gene mutation/amplification at 1 uM after 72 hrs by Ambit assay in presence of 10% serum; assay type: functional, cell-based; conditions: A549, 72 h
COLO-829 = test: Antiproliferative activity against human COLO829 harboring BRAF/PTEN gene mutation/amplification at 1 uM after 72 hrs by Ambit assay in presence of 10% serum; assay type: functional, cell-based; conditions: COLO-829, 72 h
[24] = molecular target: TGF-beta receptor type-2 (Homo sapiens) (UniProt P37173); test: Inhibition of TGFBR2 assessed as inhibition of TGFbeta induced SMAD phosphorylation at 10 uM relative to control

Chain of Phosphatidylinositol 4,5-bisphosphate 3-kinase catalytic subunit alpha isoform (P42336 whole entry, canonical isoform): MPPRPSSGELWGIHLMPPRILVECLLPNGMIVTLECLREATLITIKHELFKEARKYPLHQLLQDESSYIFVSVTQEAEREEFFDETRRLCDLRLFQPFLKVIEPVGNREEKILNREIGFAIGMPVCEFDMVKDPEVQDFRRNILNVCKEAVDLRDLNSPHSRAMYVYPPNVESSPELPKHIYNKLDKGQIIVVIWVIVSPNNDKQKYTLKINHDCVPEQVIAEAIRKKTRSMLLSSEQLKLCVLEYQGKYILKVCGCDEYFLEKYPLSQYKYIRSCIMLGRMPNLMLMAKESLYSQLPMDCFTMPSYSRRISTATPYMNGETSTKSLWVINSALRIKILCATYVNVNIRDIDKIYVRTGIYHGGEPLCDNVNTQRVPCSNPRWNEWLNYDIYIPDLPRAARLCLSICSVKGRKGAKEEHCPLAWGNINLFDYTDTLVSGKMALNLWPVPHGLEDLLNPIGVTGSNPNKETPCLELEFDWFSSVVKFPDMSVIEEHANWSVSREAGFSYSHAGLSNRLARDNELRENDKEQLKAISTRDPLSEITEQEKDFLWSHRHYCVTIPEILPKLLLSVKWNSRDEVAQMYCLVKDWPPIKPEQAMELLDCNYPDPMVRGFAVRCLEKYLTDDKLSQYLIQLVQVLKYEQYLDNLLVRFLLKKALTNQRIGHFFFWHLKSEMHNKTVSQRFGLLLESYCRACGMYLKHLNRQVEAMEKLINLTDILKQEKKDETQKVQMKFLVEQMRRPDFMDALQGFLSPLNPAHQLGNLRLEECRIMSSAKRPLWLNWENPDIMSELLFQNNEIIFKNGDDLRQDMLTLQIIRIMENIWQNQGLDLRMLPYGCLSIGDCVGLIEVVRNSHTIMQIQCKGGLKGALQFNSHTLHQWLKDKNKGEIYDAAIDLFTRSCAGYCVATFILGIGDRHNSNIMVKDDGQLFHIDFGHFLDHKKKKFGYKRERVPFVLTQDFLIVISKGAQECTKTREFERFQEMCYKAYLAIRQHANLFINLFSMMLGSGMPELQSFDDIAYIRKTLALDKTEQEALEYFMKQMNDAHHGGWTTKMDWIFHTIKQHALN
Chain of Phosphatidylinositol 4,5-bisphosphate 3-kinase catalytic subunit beta isoform (P42338 whole entry, canonical isoform): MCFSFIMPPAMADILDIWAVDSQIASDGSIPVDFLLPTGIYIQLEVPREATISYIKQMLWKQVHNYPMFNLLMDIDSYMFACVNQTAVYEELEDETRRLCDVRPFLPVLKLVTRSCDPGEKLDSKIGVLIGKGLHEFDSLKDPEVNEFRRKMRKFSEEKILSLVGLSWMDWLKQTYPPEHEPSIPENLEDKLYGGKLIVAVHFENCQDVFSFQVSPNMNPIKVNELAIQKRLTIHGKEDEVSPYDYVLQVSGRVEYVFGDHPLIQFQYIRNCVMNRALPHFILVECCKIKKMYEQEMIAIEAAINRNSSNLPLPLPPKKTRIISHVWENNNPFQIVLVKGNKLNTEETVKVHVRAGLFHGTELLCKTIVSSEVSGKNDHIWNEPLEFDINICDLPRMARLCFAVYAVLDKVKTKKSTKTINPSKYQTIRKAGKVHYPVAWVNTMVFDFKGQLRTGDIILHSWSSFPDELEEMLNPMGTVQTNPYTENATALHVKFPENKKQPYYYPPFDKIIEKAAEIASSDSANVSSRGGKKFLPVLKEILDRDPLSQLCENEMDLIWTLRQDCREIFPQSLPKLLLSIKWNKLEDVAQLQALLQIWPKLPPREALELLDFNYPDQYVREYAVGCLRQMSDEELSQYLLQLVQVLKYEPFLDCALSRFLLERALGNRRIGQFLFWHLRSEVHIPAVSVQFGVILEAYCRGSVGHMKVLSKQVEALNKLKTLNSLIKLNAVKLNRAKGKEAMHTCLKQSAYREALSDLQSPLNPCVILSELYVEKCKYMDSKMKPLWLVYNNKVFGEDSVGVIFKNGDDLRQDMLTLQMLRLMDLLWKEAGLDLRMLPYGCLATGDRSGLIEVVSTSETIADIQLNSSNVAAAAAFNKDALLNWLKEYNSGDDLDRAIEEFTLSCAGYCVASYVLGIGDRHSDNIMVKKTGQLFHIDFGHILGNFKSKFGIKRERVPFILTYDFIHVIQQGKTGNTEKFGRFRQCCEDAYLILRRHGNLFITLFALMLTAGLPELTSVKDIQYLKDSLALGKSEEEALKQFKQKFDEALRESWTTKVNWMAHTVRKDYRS
Chain of TGF-beta receptor type-2 (Homo sapiens) (P37173 whole entry): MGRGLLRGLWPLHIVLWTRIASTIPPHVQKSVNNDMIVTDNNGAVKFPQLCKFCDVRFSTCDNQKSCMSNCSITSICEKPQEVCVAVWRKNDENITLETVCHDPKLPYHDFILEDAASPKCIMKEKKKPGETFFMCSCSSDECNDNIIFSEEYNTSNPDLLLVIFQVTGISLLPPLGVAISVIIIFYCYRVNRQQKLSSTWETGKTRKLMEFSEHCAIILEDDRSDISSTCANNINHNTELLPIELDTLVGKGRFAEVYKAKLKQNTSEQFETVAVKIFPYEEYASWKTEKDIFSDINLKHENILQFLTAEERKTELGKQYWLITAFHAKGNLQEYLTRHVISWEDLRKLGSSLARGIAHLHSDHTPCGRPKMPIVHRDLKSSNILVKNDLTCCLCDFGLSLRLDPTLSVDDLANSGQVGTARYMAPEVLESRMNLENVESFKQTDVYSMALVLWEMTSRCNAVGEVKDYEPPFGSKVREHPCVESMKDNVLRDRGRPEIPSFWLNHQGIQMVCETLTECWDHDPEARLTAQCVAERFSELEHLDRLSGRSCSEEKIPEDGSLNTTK
Chain of Phosphatidylinositol 4,5-bisphosphate 3-kinase catalytic subunit gamma isoform (P48736 whole entry, canonical isoform): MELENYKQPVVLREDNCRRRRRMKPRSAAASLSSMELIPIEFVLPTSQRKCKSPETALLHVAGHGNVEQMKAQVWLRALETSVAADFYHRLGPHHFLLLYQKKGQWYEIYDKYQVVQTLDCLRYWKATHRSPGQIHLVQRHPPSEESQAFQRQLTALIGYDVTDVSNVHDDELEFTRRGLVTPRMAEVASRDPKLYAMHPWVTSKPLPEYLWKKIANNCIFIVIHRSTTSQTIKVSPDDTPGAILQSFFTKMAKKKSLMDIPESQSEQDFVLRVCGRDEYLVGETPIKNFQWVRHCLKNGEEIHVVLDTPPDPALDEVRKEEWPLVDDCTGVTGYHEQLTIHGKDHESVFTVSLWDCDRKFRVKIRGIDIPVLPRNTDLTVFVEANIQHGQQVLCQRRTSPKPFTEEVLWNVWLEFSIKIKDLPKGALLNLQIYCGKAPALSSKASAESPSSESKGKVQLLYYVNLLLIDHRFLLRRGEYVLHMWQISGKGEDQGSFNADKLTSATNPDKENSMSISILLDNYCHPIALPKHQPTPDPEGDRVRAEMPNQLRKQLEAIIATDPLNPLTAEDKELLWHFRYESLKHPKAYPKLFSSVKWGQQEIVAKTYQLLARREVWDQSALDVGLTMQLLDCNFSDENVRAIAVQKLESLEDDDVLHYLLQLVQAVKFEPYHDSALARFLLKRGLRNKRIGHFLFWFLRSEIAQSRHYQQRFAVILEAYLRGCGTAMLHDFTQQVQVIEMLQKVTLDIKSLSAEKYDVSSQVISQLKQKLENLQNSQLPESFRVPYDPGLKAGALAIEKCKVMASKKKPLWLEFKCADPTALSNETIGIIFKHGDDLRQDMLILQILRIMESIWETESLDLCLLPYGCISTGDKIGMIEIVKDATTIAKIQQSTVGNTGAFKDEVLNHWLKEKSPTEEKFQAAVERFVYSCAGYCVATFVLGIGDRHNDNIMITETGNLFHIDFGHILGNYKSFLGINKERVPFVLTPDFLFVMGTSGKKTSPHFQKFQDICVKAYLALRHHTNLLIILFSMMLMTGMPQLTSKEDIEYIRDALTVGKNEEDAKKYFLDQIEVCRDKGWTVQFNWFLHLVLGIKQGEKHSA

Row | SMILES | microsomal CLint [1] [µL/min/mg] | half-life [2] [min] | bioavailability [4] [%] | clearance [5] [mL/min/kg] | fraction unbound [6] | IC50 [7] [nM] | IC50 [9] [nM] | microsomal CLint [10] [µL/min/mg] | IC50 [11] [nM] | AUC (Rattus norvegicus [12]) [nM] | IC50 [13] [nM] | IC50 [14] [nM] | IC50 [15] [nM] | Vd [16] [L/kg] | IC50 [21] [nM] | other results
1 | Cc1nc(N)nc(-n2c(Nc3ccn[nH]3)nc3ccccc32)n1 | 52 | 43.2 | 6.3 | 31.7 | 0.028 | 510 | 390 | 79 | 800 | 1680 | 870 | 27 | 55 | 1.1 | – | solubility [3]: 37 µg/mL (≈ 120 µM); CL (Liver): 28 µL/min/mg; Activity (Rattus norvegicus [8]): Active
2 | Cc1nc(NCC#N)nc(-n2c(Nc3ccn[nH]3)nc3ccccc32)n1 | – | – | 0 | – | 0.016 | 4000 | 600 | – | 6200 | – | 8500 | 31 | 73 | – | 3600 | half-life [17]: 27 min; clearance [18]: 41.7 mL/min/kg; AUC (Rattus norvegicus [19]): 559 nM; Vd [20]: 1.5 L/kg
3 | Cc1nc(N)nc(-n2c(Nc3ccon3)nc3ccccc32)n1 | 46 | 30 | – | 30 | 0.023 | 1300 | 3300 | 39 | 840 | 1930 | 3100 | 150 | 260 | 1.4 | 2300 | –
4 | Cc1nc(NCC#N)nc(-n2c(Nc3cc[nH]n3)nc3ccccc32)n1 | – | – | – | – | – | – | – | – | – | – | – | – | – | – | – | IC50 (HCC1954): 220 nM; IC50 [22]: 350 nM; IC50 (MCF7): 540 nM; IC50 (MDA-MB-468): 690 nM; inhibition [23]: 17%; IC50 (DU-4475): 530 nM; IC50 (BT-474): 200 nM; IC50 (NCI-H460): 460 nM; IC50 (CAL-51): 320 nM; IC50 (NCI-H82): 430 nM; IC50 (NCI-H1975): 600 nM; IC50 (NCI-H2009): 420 nM; IC50 (UACC-893): 140 nM; IC50 (Calu-6): 590 nM; IC50 (SK-MEL-28): 470 nM; IC50 (MDA-MB-231): 270 nM; IC50 (A-375): 380 nM; IC50 (A549): 430 nM; IC50 (COLO-829): 340 nM; inhibition [24]: inactive
